Laboratory results reported in patent publication US20140194460A1, “TREATMENT OF ENDOMETRIOSIS” (Ferring B.V., priority 2009, published 2014).
Values joined by “and” are separate entries in the source; they are usually repeats but may differ in a detail not shown here. Equal values may be shown once. “Also recorded” adds a separate entry of the source.

Columns and labels:
Format in all cases: in vivo, human
[1] = system: peritoneal red endometriotic lesions; experiment: Macroscopic analysis: appearance and surface area of index endometriotic lesions at L1 and L2
Protocol: Operative L1 and L2 were performed by two experienced surgeons using modern laparoscopic equipment and the surgeries were recorded by video. The severity of the disease was established according to the Revised American Society for Reproductive Medicine classification of endometriosis: […] (16). During L1, 4-6 index peritoneal red lesions were identified before surgical manipulation started. Half of the index lesions were surgically removed and stored as described below. The remaining half index lesions were left behind and marked with an unabsorbable silk knot sature approximately 1 cm away from them. All non-index lesions were subsequently removed and discarded. […] Thus the study continued with 10 patients after L1. One patient discontinued treatment. At the end of treatment, the L2 was performed and video recorded. During surgery the silk knot was identified in all patients, the suture removed and the area containing the index lesion left behind surgically excised. If significant adhesion formation was detected, lysis of adhesion was performed. The index lesions removed at L1 and L2 were fixed in formalin (approximately 75% of each lesion tissue) for histological verification and descriptive analysis of endometriosis. Formalin fixed samples were also employed for immunohistochemical analysis and subsequent quantification of vascularisation, vessel immatureness, Drd2 expression, cell proliferation, VEGFR2 expression and VEGFR2 activation by techniques well known in the art. The remaining portion of each lesion tissue (25%) was homogenized in Trizol and cryopreserved at −80° C. for subsequent Superarray QF-PCR analysis. All laparoscopies were recorded with a Karl Storz (Germany) videocamera. […] Eligible frames were captured, copied to a PC computer and opened with ImagePro Plus Version 6.03 (Media Cybernetics, Silver Spring, Md., USA) software for image processing. The size of the black or grey cap served as a reference to measure the changes in surface induced by quinagolide at L2 over the lesions left behind during L1.

[2] = system: proliferating cells (Ki67+) in endometriotic implants; experiment: Proliferative activity by Ki-67 immunocytochemistry; conditions: after versus before treatment, FIG. 3
Protocol: Immunocytochemistry with Ki-67 (monoclonal IgG1 DAKO Corp., Denmark) antibody was performed in order to evaluate the proliferative activity of the samples, by methods well known in the art. […] The images obtained show proliferating cells as positive for Ki67 with nuclear (brown/black) staining. At least 10 random 40× microscopic fields per sample were photographed and analysed. Areas of interest corresponding to proliferating cells (Ki67+) were segmented and marked, and counted.

[3] = system: vessels in endometriotic lesions; experiment: Vascularisation of biopsy samples by CD31 immunofluorescence/immunohistochemistry; conditions: after versus before treatment, FIG. 2
Protocol: The vascularisation effects of the quinagolide were assessed by immunofluorescence/immunohistochemistry on the biopsy samples taken before and after treatment, by methods well known in the art. The CD31(+) signal was used which specifically stains for vessels; vessels are stained brown. In order to quantify vascularisation at least 10 random 40× microscopic fields per sample were photographed and analysed using Image pro-plus software. Areas of interest corresponding to vessels (brown stain) were segmented and marked; and those corresponding to non vascularised areas were segmented and marked differently. The marked image was then analysed to show the % vascularised area per tissue, and the results for samples before and after treatment are shown in FIG. 2.

endometriosis = experiment: ASRM classification of endometriosis before and after treatment (pilot study); conditions: per patient (9 women with hyperprolactinemia and endometriosis); oral 25 then 50 then 75 micrograms/day, total 18-20 weeks; stage IV most severe, stage I least severe
Protocol: (§1) 1] Laparoscopy 1: an endometriotic implant was biopsied, and a second endometriotic implant, similar to the biopsied one, was marked with a non-absorbable suture. Pictures were taken before and after surgery from all individuals. The marked implant was photographed (e.g. FIG. 1A). The biopsy sample was analysed as described below. An assessment of ASRM stage pre-treatment was taken. The PRL level (μg/mL) and Ca125 level (IU/ml) for each patient was measured pre-treatment, by known methods.
3] Laparoscopy 2: in which the second (marked) implant was biopsied. The marked implant was photographed (e.g. FIG. 1B). The biopsy sample was analysed as described below. A second assessment of the ASRM stage post-treatment was completed. The PRL level (μg/mL) and Ca125 level (IU/ml) for each patient was measured post-treatment, by known methods.
Operative L1 and L2 were performed by two experienced surgeons using modern laparoscopic equipment and the surgeries were recorded by video. The severity of the disease was established according to the Revised American Society for Reproductive Medicine classification of endometriosis: […] (16). During L1, 4-6 index peritoneal red lesions were identified before surgical manipulation started. Half of the index lesions were surgically removed and stored as described below. […]

endometriotic lesions = experiment: Histological analysis and Superarray QF-PCR expression analysis of index lesions removed at L1 and L2
Protocol: At the end of treatment, the L2 was performed and video recorded. During surgery the silk knot was identified in all patients, the suture removed and the area containing the index lesion left behind surgically excised. If significant adhesion formation was detected, lysis of adhesion was performed. The index lesions removed at L1 and L2 were fixed in formalin (approximately 75% of each lesion tissue) for histological verification and descriptive analysis of endometriosis. Formalin fixed samples were also employed for immunohistochemical analysis and subsequent quantification of vascularisation, vessel immatureness, Drd2 expression, cell proliferation, VEGFR2 expression and VEGFR2 activation by techniques well known in the art. The remaining portion of each lesion tissue (25%) was homogenized in Trizol and cryopreserved at −80° C. for subsequent Superarray QF-PCR analysis.

[4] = system: dopamine receptor 2 (DAR2); experiment: DAR2 expression in endometriotic lesions by staining; conditions: after versus before treatment, FIG. 5
Protocol: DAR2 expression in human endometriotic lesions was measured by staining, by methods well known in the art (FIG. 5, bottom).

Ca125 = Ca125 level before and after treatment; conditions: per patient; after oral 25/50/75 micrograms/day titrated treatment, 18-20 weeks
Protocol: as §1, with “methods. 3] Laparoscopy 2: in which the second (marked) implant was biopsied. The marked implant was photographed (e.g. FIG. 1B). The biopsy sample was analysed as described below. A second assessment of the ASRM stage post-treatment was completed. The PRL level (μg/mL) and Ca125 level (IU/ml) for each patient was measured post-treatment, by known methods.” for “methods.”

PRL = experiment: Serum PRL level before and after treatment; conditions: per patient; after oral 25/50/75 micrograms/day titrated treatment, 18-20 weeks
Protocol: 1] Laparoscopy 1: an endometriotic implant was biopsied, and a second endometriotic implant, similar to the biopsied one, was marked with a non-absorbable suture. Pictures were taken before and after surgery from all individuals. The marked implant was photographed (e.g. FIG. 1A). The biopsy sample was analysed as described below. An assessment of ASRM stage pre-treatment was taken. The PRL level (μg/mL) and Ca125 level (IU/ml) for each patient was measured pre-treatment, by known methods. 3] Laparoscopy 2: in which the second (marked) implant was biopsied. The marked implant was photographed (e.g. FIG. 1B). The biopsy sample was analysed as described below. A second assessment of the ASRM stage post-treatment was completed. The PRL level (μg/mL) and Ca125 level (IU/ml) for each patient was measured post-treatment, by known methods. During the four month treatment period, i.e. between L1 and L2, patients were monthly monitored in our clinic to assess severity of common side effects of Drd2-A like dizziness, nausea and vomiting. During these visits, blood was drawn for subsequent EIA measurement of serum PRL, a marker of the level of Drd2 activity, to monitor compliance with taking the medication.

[5] = L2 versus L1, results not shown

Structure (SMILES): CCCN1C[C@H](NS(=O)(=O)N(CC)CC)C[C@H]2Cc3c(O)cccc3C[C@@H]21 [quinagolide, (3R,4aR,10aS)-3-(Diethylsulfamoylamino)-6-hydroxy-1-propyl-3,4,4a,5,10,10a-hexahydro-2H-benzo[g]quinoline]
- Decrease of mean total surface area (size) of index lesions, L2 versus L1 ([1]; 9 patients, after 18-20 weeks treatment): 68%
- Mean of the total surface area of index lesions measured during L2 ([1]; 9 patients, vanished lesions counted as 100% size reduction, L1 value 36.09±20.56 mm^2, p<0.05): 11.57±12.54 mm^2
- Lesions vanishing ([1]; after 18-20 weeks treatment): 35%
- Number of recovered index lesions showing reduction in size compared to L1 ([1]; out of 15 lesions recovered at L2): 13
- Number of red index lesions vanished at L2 ([1]; out of 23 red index lesions labelled at L1): 8
- Number of patients with all index endometriotic lesions absent during L2 ([1]; out of the 9 patients): 2
- Number of patients with vanished lesions combined with persisting lesions decreased in size ([1]; out of the 9 patients): 3
- Cell proliferation (Ki-67 positive cells per microscopic field) [2]: trend towards reduced cell proliferation
- Vascularisation of the endometriotic sample (% vascularised area, CD31) [3]: significant decrease in vascularisation
- ASRM post treatment (endometriosis): Stage II; also recorded: Stage I; also recorded: Stage III
- PAI-1 expression (endometriotic lesions; L2 lesion): down-regulated
- Histological analysis of lesions (endometriotic lesions; L2 lesions): signs of tissue degeneration
- Expression of Drd2 and antiangiogenic cytokine CXCL10 (endometriotic lesions; [5]): upreguilating
- Expression of VEGF/VEGFR2 and proangiogenic cytokines CCL2, RUNX1 and AGGF1 (endometriotic lesions; [5]): downregulated
- Expression of the dopamine receptor 2 (DAR2) in endometriotic lesions [4]: increases the expression
- Ca125 level after treatment (Ca125): 25.9 IU/ml and 15.5 IU/ml and 18 IU/ml and 21.1 IU/ml and 22 IU/ml and 24.1 IU/ml and 20.4 IU/ml and 29.9 IU/ml and 24.9 IU/ml
- PRL level after treatment (PRL): <0.6 μg/mL (2×) and 15.1 μg/mL and 14 μg/mL and 6.5 μg/mL and <0.1 μg/mL and 6.4 μg/mL and 1.1 μg/mL and 28.6 μg/mL
